Test results: ChEMBL document CHEMBL3046732, “Synthesis and biological evaluation of new [1,3,4]thiadiazepino[7,6-b]quinolin-2-amines as potent anti-microbial agents” (2013)

Experiments:
Curvularia australiensis = assay: Antimicrobial activity against Curvularia australiensis assessed as growth inhibition by microdilution method; format: functional
Aspergillus niger = assay: Antimicrobial activity against Aspergillus niger assessed as growth inhibition by microdilution method; format: functional
Alternaria alternata = assay: Antimicrobial activity against Alternaria alternata assessed as growth inhibition by microdilution method; format: functional
Aspergillus flavus = assay: Antimicrobial activity against Aspergillus flavus assessed as growth inhibition by microdilution method; format: functional
Trichoderma reesei = assay: Antimicrobial activity against Trichoderma reesei assessed as growth inhibition by microdilution method; format: functional
Escherichia coli = assay: Antimicrobial activity against Escherichia coli assessed as growth inhibition by microdilution method
Bacillus subtilis = assay: Antimicrobial activity against Bacillus subtilis assessed as growth inhibition by microdilution method
Staphylococcus aureus = assay: Antimicrobial activity against Staphylococcus aureus assessed as growth inhibition by microdilution method
Klebsiella aerogenes = assay: Antimicrobial activity against Enterobacter aerogenes assessed as growth inhibition by microdilution method
Streptococcus pyogenes = assay: Antimicrobial activity against Streptococcus pyogenes assessed as growth inhibition by microdilution method
Salmonella typhimurium = assay: Antimicrobial activity against Salmonella enterica subsp. enterica serovar Typhimurium assessed as growth inhibition by microdilution method

## Cc1ccc(NC2=NN=Cc3cc4cccc(C)c4nc3S2)cc1
Curvularia australiensis
  MIC: 1000 µg/mL
Aspergillus niger
  MIC: 1000 µg/mL
Alternaria alternata
  MIC: 1000 µg/mL
Aspergillus flavus
  MIC: 500 µg/mL
Trichoderma reesei
  MIC: 500 µg/mL
Escherichia coli
  MIC: 1000 µg/mL
Bacillus subtilis
  MIC: 1000 µg/mL
Staphylococcus aureus
  MIC: 1000 µg/mL
Klebsiella aerogenes
  MIC: 1000 µg/mL
Streptococcus pyogenes
  MIC: 1000 µg/mL
Salmonella typhimurium
  MIC: 1000 µg/mL

## Cc1ccc2nc3c(cc2c1)C=NN=C(Nc1ccccc1)S3
Curvularia australiensis
  MIC: > 1000 µg/mL
Aspergillus niger
  MIC: 1000 µg/mL
Alternaria alternata
  MIC: 1000 µg/mL
Aspergillus flavus
  MIC: 500 µg/mL
Trichoderma reesei
  MIC: 500 µg/mL
Escherichia coli
  MIC: > 1000 µg/mL
Bacillus subtilis
  MIC: 1000 µg/mL
Staphylococcus aureus
  MIC: 1000 µg/mL
Klebsiella aerogenes
  MIC: 500 µg/mL
Streptococcus pyogenes
  MIC: 500 µg/mL
Salmonella typhimurium
  MIC: 500 µg/mL

## Cc1cccc2cc3c(nc12)SC(Nc1ccc(F)cc1)=NN=C3
Curvularia australiensis
  MIC: 1000 µg/mL
Aspergillus niger
  MIC: 1000 µg/mL
Alternaria alternata
  MIC: 500 µg/mL
Aspergillus flavus
  MIC: 1000 µg/mL
Trichoderma reesei
  MIC: 500 µg/mL
Escherichia coli
  MIC: 250 µg/mL
Bacillus subtilis
  MIC: 500 µg/mL
Staphylococcus aureus
  MIC: 250 µg/mL
Klebsiella aerogenes
  MIC: 500 µg/mL
Streptococcus pyogenes
  MIC: 250 µg/mL
Salmonella typhimurium
  MIC: 500 µg/mL

## COc1ccc2nc3c(cc2c1)C=NN=C(Nc1ccccc1Cl)S3
Curvularia australiensis
  MIC: 500 µg/mL
Aspergillus niger
  MIC: 500 µg/mL
Alternaria alternata
  MIC: 500 µg/mL
Aspergillus flavus
  MIC: 500 µg/mL
Trichoderma reesei
  MIC: 500 µg/mL
Escherichia coli
  MIC: 500 µg/mL
Bacillus subtilis
  MIC: 30 µg/mL
Staphylococcus aureus
  MIC: 1000 µg/mL
Klebsiella aerogenes
  MIC: 125 µg/mL
Streptococcus pyogenes
  MIC: 30 µg/mL
Salmonella typhimurium
  MIC: 60 µg/mL

## Cc1ccccc1NC1=NN=Cc2cc3ccc(Cl)c(C)c3nc2S1
Curvularia australiensis
  MIC: 500 µg/mL
Aspergillus niger
  MIC: 500 µg/mL
Alternaria alternata
  MIC: 250 µg/mL
Aspergillus flavus
  MIC: 1000 µg/mL
Trichoderma reesei
  MIC: 60 µg/mL
Escherichia coli
  MIC: 250 µg/mL
Bacillus subtilis
  MIC: 60 µg/mL
Staphylococcus aureus
  MIC: 500 µg/mL
Klebsiella aerogenes
  MIC: 250 µg/mL
Streptococcus pyogenes
  MIC: 250 µg/mL
Salmonella typhimurium
  MIC: 500 µg/mL

## Cc1c(Cl)ccc2cc3c(nc12)SC(Nc1ccc(Cl)cc1)=NN=C3
Curvularia australiensis
  MIC: 500 µg/mL
Aspergillus niger
  MIC: 500 µg/mL
Alternaria alternata
  MIC: 250 µg/mL
Aspergillus flavus
  MIC: 1000 µg/mL
Trichoderma reesei
  MIC: 125 µg/mL
Escherichia coli
  MIC: 500 µg/mL
Bacillus subtilis
  MIC: 60 µg/mL
Staphylococcus aureus
  MIC: 1000 µg/mL
Klebsiella aerogenes
  MIC: 500 µg/mL
Streptococcus pyogenes
  MIC: 500 µg/mL
Salmonella typhimurium
  MIC: 1000 µg/mL

## COc1ccc2nc3c(cc2c1)C=NN=C(Nc1ccc(F)cc1)S3
Curvularia australiensis
  MIC: 1000 µg/mL
Aspergillus niger
  MIC: 1000 µg/mL
Alternaria alternata
  MIC: 60 µg/mL
Aspergillus flavus
  MIC: > 1000 µg/mL
Trichoderma reesei
  MIC: 500 µg/mL
Escherichia coli
  MIC: 500 µg/mL
Bacillus subtilis
  MIC: 500 µg/mL
Staphylococcus aureus
  MIC: 500 µg/mL
Klebsiella aerogenes
  MIC: 60 µg/mL
Streptococcus pyogenes
  MIC: 500 µg/mL
Salmonella typhimurium
  MIC: 250 µg/mL

## Cc1ccccc1NC1=NN=Cc2cc3cccc(C)c3nc2S1
Curvularia australiensis
  MIC: 500 µg/mL
Aspergillus niger
  MIC: 500 µg/mL
Alternaria alternata
  MIC: 1000 µg/mL
Aspergillus flavus
  MIC: 125 µg/mL
Trichoderma reesei
  MIC: 125 µg/mL
Escherichia coli
  MIC: 1000 µg/mL
Bacillus subtilis
  MIC: 1000 µg/mL
Staphylococcus aureus
  MIC: 1000 µg/mL
Klebsiella aerogenes
  MIC: 1000 µg/mL
Streptococcus pyogenes
  MIC: 1000 µg/mL
Salmonella typhimurium
  MIC: 1000 µg/mL

## Cc1ccc2nc3c(cc2c1)C=NN=C(Nc1cccc(F)c1)S3
Curvularia australiensis
  MIC: > 1000 µg/mL
Aspergillus niger
  MIC: 1000 µg/mL
Alternaria alternata
  MIC: 500 µg/mL
Aspergillus flavus
  MIC: 1000 µg/mL
Trichoderma reesei
  MIC: 1000 µg/mL
Escherichia coli
  MIC: > 1000 µg/mL
Bacillus subtilis
  MIC: > 1000 µg/mL
Staphylococcus aureus
  MIC: > 1000 µg/mL
Klebsiella aerogenes
  MIC: > 1000 µg/mL
Streptococcus pyogenes
  MIC: > 1000 µg/mL
Salmonella typhimurium
  MIC: > 1000 µg/mL

## Cc1cccc2cc3c(nc12)SC(Nc1ccccc1Cl)=NN=C3
Curvularia australiensis
  MIC: 500 µg/mL
Aspergillus niger
  MIC: > 1000 µg/mL
Alternaria alternata
  MIC: 1000 µg/mL
Aspergillus flavus
  MIC: 1000 µg/mL
Trichoderma reesei
  MIC: 1000 µg/mL
Escherichia coli
  MIC: > 1000 µg/mL
Bacillus subtilis
  MIC: > 1000 µg/mL
Staphylococcus aureus
  MIC: > 1000 µg/mL
Klebsiella aerogenes
  MIC: > 1000 µg/mL
Streptococcus pyogenes
  MIC: > 1000 µg/mL
Salmonella typhimurium
  MIC: > 1000 µg/mL

## CCc1ccc(NC2=NN=Cc3cc4cc(OC)ccc4nc3S2)cc1
Curvularia australiensis
  MIC: 1000 µg/mL
Aspergillus niger
  MIC: 500 µg/mL
Alternaria alternata
  MIC: 500 µg/mL
Aspergillus flavus
  MIC: 500 µg/mL
Trichoderma reesei
  MIC: 500 µg/mL
Escherichia coli
  MIC: 500 µg/mL
Bacillus subtilis
  MIC: 500 µg/mL
Staphylococcus aureus
  MIC: 500 µg/mL
Klebsiella aerogenes
  MIC: 500 µg/mL
Streptococcus pyogenes
  MIC: 500 µg/mL
Salmonella typhimurium
  MIC: 500 µg/mL

## Cc1ccc2nc3c(cc2c1)C=NN=C(Nc1ccc(F)cc1)S3
Curvularia australiensis
  MIC: > 1000 µg/mL
Aspergillus niger
  MIC: 1000 µg/mL
Alternaria alternata
  MIC: 1000 µg/mL
Aspergillus flavus
  MIC: > 1000 µg/mL
Trichoderma reesei
  MIC: 1000 µg/mL
Escherichia coli
  MIC: 500 µg/mL
Bacillus subtilis
  MIC: 250 µg/mL
Staphylococcus aureus
  MIC: 250 µg/mL
Klebsiella aerogenes
  MIC: 125 µg/mL
Streptococcus pyogenes
  MIC: 500 µg/mL
Salmonella typhimurium
  MIC: 250 µg/mL

## COc1ccc2nc3c(cc2c1)C=NN=C(NCCN1CCOCC1)S3
Curvularia australiensis
  MIC: 1000 µg/mL
Aspergillus niger
  MIC: 1000 µg/mL
Alternaria alternata
  MIC: 1000 µg/mL
Aspergillus flavus
  MIC: 500 µg/mL
Trichoderma reesei
  MIC: 1000 µg/mL
Escherichia coli
  MIC: 500 µg/mL
Bacillus subtilis
  MIC: 500 µg/mL
Staphylococcus aureus
  MIC: 500 µg/mL
Klebsiella aerogenes
  MIC: 1000 µg/mL
Streptococcus pyogenes
  MIC: 500 µg/mL
Salmonella typhimurium
  MIC: 500 µg/mL

## Cc1cccc2cc3c(nc12)SC(Nc1ccccc1F)=NN=C3
Curvularia australiensis
  MIC: 1000 µg/mL
Aspergillus niger
  MIC: > 1000 µg/mL
Alternaria alternata
  MIC: 1000 µg/mL
Aspergillus flavus
  MIC: 1000 µg/mL
Trichoderma reesei
  MIC: 1000 µg/mL
Escherichia coli
  MIC: 500 µg/mL
Bacillus subtilis
  MIC: 500 µg/mL
Staphylococcus aureus
  MIC: 1000 µg/mL
Klebsiella aerogenes
  MIC: 500 µg/mL
Streptococcus pyogenes
  MIC: 1000 µg/mL
Salmonella typhimurium
  MIC: 250 µg/mL
